Assay results: PubChem BioAssay AID1963848 (Molecular Pharmacology Branch, DTP, NCI, 2024)

Test system: 379773-124-R-J2-PDC spheroid viability
Assay: Anticancer human tumor 379773-124-R-J2-PDC patient-derived endometrial carcinoma cell line growth inhibition [POLQ]
Settings: spheroids with HUVEC and MSC; for IC50: curve of first compound; for viability, T/C: stronger effect = lower value
Outline: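 Patient-derived tumour cells were co-cultured with HUVEC and mesenchymal stem cells as multicellular spheroids at 37 °C. They were treated with POLQ inhibitors (novobiocin, ART-558, RP6685) alone or combined with other agents. Top concentrations were at or near clinical Cmax (otherwise 10 microM; SN-38 at 1 microM), decreasing in half-log steps.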

[1] = second compound 0.0316 µM, first compound 0.0316 µM
[2] = second compound 0.0316 µM, first compound 0.1 µM
[3] = second compound 0.0316 µM, first compound 0.316 µM
[4] = second compound 0.0316 µM, first compound 1 µM
[5] = second compound 0.0316 µM, first compound 3.16 µM
[6] = second compound 0.0316 µM, first compound 10 µM
[7] = second compound 0.1 µM, first compound 0.0316 µM
[8] = second compound 0.1 µM, first compound 0.1 µM
[9] = second compound 0.1 µM, first compound 0.316 µM
[10] = second compound 0.1 µM, first compound 1 µM
[11] = second compound 0.1 µM, first compound 3.16 µM
[12] = second compound 0.1 µM, first compound 10 µM
[13] = second compound 0.316 µM, first compound 0.0316 µM
[14] = second compound 0.316 µM, first compound 0.1 µM
[15] = second compound 0.316 µM, first compound 0.316 µM
[16] = second compound 0.316 µM, first compound 1 µM
[17] = second compound 0.316 µM, first compound 3.16 µM
[18] = second compound 0.316 µM, first compound 10 µM
[19] = second compound 1 µM, first compound 0.0316 µM
[20] = second compound 1 µM, first compound 0.1 µM
[21] = second compound 1 µM, first compound 0.316 µM
[22] = second compound 1 µM, first compound 1 µM
[23] = second compound 1 µM, first compound 3.16 µM
[24] = second compound 1 µM, first compound 10 µM
[25] = second compound 3.16 µM, first compound 0.0316 µM
[26] = second compound 3.16 µM, first compound 0.1 µM
[27] = second compound 3.16 µM, first compound 0.316 µM
[28] = second compound 3.16 µM, first compound 1 µM
[29] = second compound 3.16 µM, first compound 3.16 µM
[30] = second compound 3.16 µM, first compound 10 µM
[31] = second compound 10 µM, first compound 0.0316 µM
[32] = second compound 10 µM, first compound 0.1 µM
[33] = second compound 10 µM, first compound 0.316 µM
[34] = second compound 10 µM, first compound 1 µM
[35] = second compound 10 µM, first compound 3.16 µM
[36] = second compound 10 µM, first compound 10 µM
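Also: spheroids exposed to drugs for seven days before readout.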
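For viability, T/C in this document: percent viability relative to DMSO vehicle control taken as 100%.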

## CCc1cc2c(N3CCc4c(cc(Cn5ccnc5)cc4-c4cn(C)nc4C(F)(F)F)C3=O)ccnc2c(OC)n1 + COC1C(OC(N)=O)C(O)C(Oc2ccc3c(O)c(NC(=O)c4ccc(O)c(CC=C(C)C)c4)c(=O)oc3c2C)OC1(C)C
Second compound 0.0316 µM
  IC50: 3420 nM
Second compound 0.1 µM
  IC50: 2600 nM
Second compound 0.316 µM
  IC50: 2420 nM
Second compound 1 µM
  IC50: 3580 nM
Second compound 3.16 µM
  IC50: 1790 nM
Second compound 10 µM
  IC50: > 10000 nM
[1]
  viability, T/C: 79.6%
[2]
  viability, T/C: 68.7%
[3]
  viability, T/C: 62.5%
[4]
  viability, T/C: 58.6%
[5]
  viability, T/C: 52.4%
[6]
  viability, T/C: 42.6%
[7]
  viability, T/C: 79.5%
[8]
  viability, T/C: 64.2%
[9]
  viability, T/C: 59.7%
[10]
  viability, T/C: 56.1%
[11]
  viability, T/C: 52.3%
[12]
  viability, T/C: 42.3%
[13]
  viability, T/C: 75.8%
[14]
  viability, T/C: 68%
[15]
  viability, T/C: 59.1%
[16]
  viability, T/C: 57.2%
[17]
  viability, T/C: 48.2%
[18]
  viability, T/C: 42.3%
[19]
  viability, T/C: 66.7%
[20]
  viability, T/C: 65.4%
[21]
  viability, T/C: 58.3%
[22]
  viability, T/C: 58.1%
[23]
  viability, T/C: 49.5%
[24]
  viability, T/C: 44.7%
[25]
  viability, T/C: 77.7%
[26]
  viability, T/C: 65%
[27]
  viability, T/C: 55.6%
[28]
  viability, T/C: 53.4%
[29]
  viability, T/C: 52%
[30]
  viability, T/C: 42.1%
[31]
  viability, T/C: 83.3%
[32]
  viability, T/C: 59.6%
[33]
  viability, T/C: 64.2%
[34]
  viability, T/C: 63.8%
[35]
  viability, T/C: 51.1%
[36]
  viability, T/C: 51.1%

## CCCS(=O)(=O)Nc1ccc(F)c(C(=O)c2c[nH]c3ncc(-c4ccc(Cl)cc4)cc23)c1F + Nc1ccc(C#CCN(C(=O)Cc2ncc(C(F)(F)F)cc2C(F)(F)F)c2ccc(F)cc2)nn1
Second compound 0.0316 µM
  IC50: > 10000 nM
Second compound 0.1 µM
  IC50: > 10000 nM
Second compound 0.316 µM
  IC50: > 10000 nM
Second compound 1 µM
  IC50: > 10000 nM
Second compound 3.16 µM
  IC50: > 10000 nM
Second compound 10 µM
  IC50: > 10000 nM
[1]
  viability, T/C: 85.6%
[2]
  viability, T/C: 97.3%
[3]
  viability, T/C: 83.9%
[4]
  viability, T/C: 92%
[5]
  viability, T/C: 80.9%
[6]
  viability, T/C: 55.1%
[7]
  viability, T/C: 95.3%
[8]
  viability, T/C: 88.7%
[9]
  viability, T/C: 87.2%
[10]
  viability, T/C: 85.7%
[11]
  viability, T/C: 81.4%
[12]
  viability, T/C: 55%
[13]
  viability, T/C: 94.6%
[14]
  viability, T/C: 95.8%
[15]
  viability, T/C: 81%
[16]
  viability, T/C: 94.6%
[17]
  viability, T/C: 93.6%
[18]
  viability, T/C: 70.8%
[19]
  viability, T/C: 90.6%
[20]
  viability, T/C: 86.6%
[21]
  viability, T/C: 95.1%
[22]
  viability, T/C: 85.7%
[23]
  viability, T/C: 77.9%
[24]
  viability, T/C: 59.2%
[25]
  viability, T/C: 96.5%
[26]
  viability, T/C: 89.7%
[27]
  viability, T/C: 92.1%
[28]
  viability, T/C: 96.4%
[29]
  viability, T/C: 75.1%
[30]
  viability, T/C: 59.8%
[31]
  viability, T/C: 100%
[32]
  viability, T/C: 87.3%
[33]
  viability, T/C: 79.8%
[34]
  viability, T/C: 83.6%
[35]
  viability, T/C: 81.5%
[36]
  viability, T/C: 54.3%

## Nc1ccn(C2OC(CO)C(O)C2(F)F)c(=O)n1 (stereo unspecified) + Nc1ccc(C#CCN(C(=O)Cc2ncc(C(F)(F)F)cc2C(F)(F)F)c2ccc(F)cc2)nn1
Second compound 0.0316 µM
  IC50: < 31.6 nM
Second compound 0.1 µM
  IC50: < 31.6 nM
Second compound 0.316 µM
  IC50: < 31.6 nM
Second compound 1 µM
  IC50: < 31.6 nM
Second compound 3.16 µM
  IC50: 42 nM
Second compound 10 µM
  IC50: 71.9 nM
[1]
  viability, T/C: 15.1%
[2]
  viability, T/C: 10.6%
[3]
  viability, T/C: 11.7%
[4]
  viability, T/C: 13.6%
[5]
  viability, T/C: 12.6%
[6]
  viability, T/C: 9.91%
[7]
  viability, T/C: 19.5%
[8]
  viability, T/C: 11.3%
[9]
  viability, T/C: 11.3%
[10]
  viability, T/C: 11.7%
[11]
  viability, T/C: 12.6%
[12]
  viability, T/C: 11.1%
[13]
  viability, T/C: 24%
[14]
  viability, T/C: 12.2%
[15]
  viability, T/C: 10.3%
[16]
  viability, T/C: 13.1%
[17]
  viability, T/C: 12%
[18]
  viability, T/C: 12%
[19]
  viability, T/C: 36.3%
[20]
  viability, T/C: 11.9%
[21]
  viability, T/C: 10.3%
[22]
  viability, T/C: 9.8%
[23]
  viability, T/C: 10.8%
[24]
  viability, T/C: 12.4%
[25]
  viability, T/C: 61.2%
[26]
  viability, T/C: 15.9%
[27]
  viability, T/C: 10.5%
[28]
  viability, T/C: 10.6%
[29]
  viability, T/C: 9.92%
[30]
  viability, T/C: 10.9%
[31]
  viability, T/C: 96.1%
[32]
  viability, T/C: 31.3%
[33]
  viability, T/C: 12.7%
[34]
  viability, T/C: 9.85%
[35]
  viability, T/C: 10.6%
[36]
  viability, T/C: 9.44%
